Results reported in patent US6211227A, “Tricyclic compounds” (Kyowa Hakko Kogyo Co., Ltd., priority 1997, dated 2001).
Like-named read-outs stand apart in the source and are kept apart here.

Tests used:
[1] = system: detrusor muscle (isolated urinary bladder strips); test: Relaxation of rhythmic contraction induced by 15 mmol/l KCl in isolated urinary bladder strips (Test Example 2); parameters: species or system guinea pig (male albino Hartley); details: Cavia porcellus; KCl 15 mmol/l; cumulative, contact time 15-30 minutes; 50% relaxant of maximum response
Description: The activity of Compounds (I) as therapeutic agents for pollakiuria and urinary incontinence is described below. In the following Test Examples 1 and 2, IC50 value was defined as the concentration at which a test compound produces 50% relaxant of maximum response of detrusor muscle.
Male albino Hartley guinea pigs (350-550 g) were used as test animals. Each animal was exsanguinated to death under sodium pentobarbital anesthesia. The lower abdominal cavity was opened and its bladder was positioned. The connective tissue and the fat tissue around the bladder were removed, and the bladder was washed. After bilateral pelvic nerves on the surface of the abdominal side of the bladder were dissected, the bladder was taken out on the entrance of ureter. The bladder was washed with a Krebs-Henseleit buffer [composition (mM): NaCl 118, KCl 4.7, MgSO4 1.2, KH2 PO4 1.2, CaCl2 2.5, NaHCO3 25, and D-glucose 11.1], and then put on a gauze patch soaked in the buffer in a Petri dish. The dome and the trigone of the bladder were cut away. The back of the bladder was cut vertically in the middle with scissors, and the bladder was put flat on the gauze patch. The mucosa of the bladder was removed. The back of the bladder was cut vertically to get 6 strips which are ca. 2.0 mm wide and ca. 10 mm long.
Each strip was tied at one end to plastic rod and placed in a 20 ml organ bath containing a Krebs-Henseleit solution which was maintained at 37° C. and bubbled vigorously with a gas mixture of 5% CO2 and 95% O2. The pH of the solution was adjusted to about 7.4. The other end of the strip was tied via silk thread to a force displacement transducer (NIHON KODEN TB-611T). The transducer was connected to a polygraph (NIHON KODEN AP-621G), and the changes in tension were recorded on a recorder (YOKOGAWA type 3066). The polygraph was graduated by 0.5 g/cm.
Isolated urinary bladder strips were prepared in the same manner as in Test Example 1, and the tension of the preparation was measured. After the tension of the tissue was adjusted to be a steady state at 1 g, 15 mmol/l KCl was applied. After the rhythmic contraction was confirmed to appear by KCl, the tissue was washed. Then, 15 mmol/l KCl was applied again. After the rhythmic contraction induced by KCl became constant, a test compound was applied by the cumulative method (half-logarithmic increment). The contact time at each concentration was 15-30 minutes. The activity of the compound was expressed as the maximum relaxation rate (%) against the tension induced by the agonist.

bladder = test: animal or person; details: Rattus norvegicus, po, read-out: Contraction interval
Description: Male SD strain rats (200-300 g) were used as test animals. Each animal was anesthetized by intraperitoneally administering 50 mg/kg Nembutal. The hair on the abdomen, the thigh, and the back of the neck was shaved, followed by disinfection with 70% ethanol. The left femoral artery of the rat was exposed by incising the thigh for the insertion of a catheter into the femoral artery. A catheter filled with physiological saline containing heparin (1000 units/ml) was introduced approximately 2-3 cm into the artery so that its tip resided in the abdominal artery. The distal end of the catheter was exteriorized at the nape of the neck, sealed, and fixed on the skin tightly. A bladder catheter was implanted according to the method of Yaksh, et al., [Am. J. Physiol., vol.251, R1177-1185 (1986)]. The bladder was exposed through a midline abdominal incision. The bladder dome was given a small incision to make a small hole. A catheter filled with physiological saline was placed into the bladder and secured with a silk ligature. The other end of the catheter was exteriorized at the nape of the neck after being passed under the skin using a trocar. The exposed end of the catheter was sealed and fixed on the skin tightly. The abdominal muscles and skin were sutured, and the test animal was recovered from anesthesia.
The rat was weighed 24-48 hours after the operation. Each rat was placed in a Bollman cage (NATSUME SEISAKUSHO), and the test was done under partial restraint. The arterial catheter was connected to a pressure transducer (NIHON KODEN DX-300) used for the measurement of blood pressure. The bladder catheter was connected to a sylinge pump for physiological saline infusion and to a pressure transducer with PE50 tubing and a three-way stop-cock. Intravesical physiological saline infusion (0.05 ml/minute) was started and continued during the test. The changes of blood pressure, heart rate, and intravesical pressure were recorded with a polygraph (NIHON KODEN). The test animal was allowed to equilibration (for ca. 60-120 minutes) until its micturition pattern became constant. At this point, a basal value of each test parameter was recorded, and the rat was compulsorily given a test compound (in 0.3% carboxymethyl cellulose-physiological saline) at a dose of 1 mg/kg (body weight) by oral administration. […] As a control compound, cromakalim was used. The contraction interval, the systemic blood pressure, and the heart rate were measured for 5 hours after the administration of the compound at one-hour intervals and were expressed as the relative values based on the pre-administration values which were regarded as 100.

Compound | IC50 [1] [µM] | response vs control in vivo at 1 mg/kg (bladder; 1 h) [%] | response vs control in vivo at 1 mg/kg (bladder; 2 h) [%] | response vs control in vivo at 1 mg/kg (bladder; 3 h) [%] | response vs control in vivo at 1 mg/kg (bladder; 4 h) [%] | response vs control in vivo at 1 mg/kg (bladder; 5 h) [%]
CC(O)(C(=O)Nc1cccc2c1C(=O)c1ccoc1CS2(=O)=O)C(F)(F)F (stereo not shown) [Compound 1-7, 9,9-Dioxo-5-(3,3,3-trifluoro-2-hydroxy-2-methylpropanoylamino)-4,10-dihydrofuro[2,3-c][1]benzothiepin-4-one] | > 10 | 116 ± 9 | 138 ± 12 | 156 ± 17 | 155 ± 16 | 155 ± 17
CC(O)(C(=O)Nc1ccc2c(c1)S(=O)(=O)Cc1occc1C2=O)C(F)(F)F (stereo not shown) [Compound 1-8, 9,9-Dioxo-7-(3,3,3-trifluoro-2-hydroxy-2-methylpropanoylamino)-4,10-dihydrofuro[2,3-c][1]benzothiepin-4-one] | 7.5 |  |  |  |  | 
CC(O)(C(=O)Nc1ccc2c(c1)C(=O)c1sccc1CS2(=O)=O)C(F)(F)F (stereo not shown) [Compound 1-9, 5,5-Dioxo-8-(3,3,3-trifluoro-2-hydroxy-2-methylpropanoylamino)-4,10-dihydrothieno[3,2-c][1]benzothiepin-10-one] | > 10 | 129 ± 23 | 123 ± 10 | 143 ± 12 | 135 ± 16 | 130 ± 5
CC(O)(C(=O)Nc1cccc2c1C(=O)c1cccnc1CS2(=O)=O)C(F)(F)F (stereo not shown) [Compound 1-14, 10,10-Dioxo-6-(3,3,3-trifluoro-2-hydroxy-2-methylpropanoylamino)-5,11-dihydro[1]benzothiepino[3,4-b]pyridin-5-one] | > 10 |  |  |  |  | 
CC(O)(C(=O)Nc1cccc2c1C(=O)c1cccc(F)c1CS2(=O)=O)C(F)(F)F (stereo not shown) [Compound 1-19, 5,5-Dioxo-7-fluoro-1-(3,3,3-trifluoro-2-hydroxy-2-methylpropanoylamino)-6,11-dihydrodibenzo[b,e]thiepin-11-one] | 4.3 | 114 ± 9 | 139 ± 7 | 136 ± 11 | 145 ± 6 | 167 ± 15
CC(O)(C(=O)Nc1ccc2c(c1)S(=O)(=O)Cc1ccc(F)cc1C2=O)C(F)(F)F (stereo not shown) [Compound 1-22, 5,5-Dioxo-9-fluoro-3-(3,3,3-trifluoro-2-hydroxy-2-methylpropanoylamino)-6,11-dihydrodibenzo[b,e]thiepin-11-one] | 6.5 |  |  |  |  | 
COc1ccc2c(c1)CS(=O)(=O)c1cccc(NC(=O)C(C)(O)C(F)(F)F)c1C2=O (stereo not shown) [Compound 1-24, 5,5-Dioxo-8-methoxy-1-(3,3,3-trifluoro-2-hydroxy-2-methylpropanoylamino)-6,11-dihydrodibenzo[b,e]thiepin-11-one] | > 10 | 140 ± 11 | 121 ± 17 | 160 ± 19 | 169 ± 25 | 169 ± 25
Cc1ccc(NC(=O)C(C)(O)C(F)(F)F)c2c1S(=O)(=O)Cc1ccsc1C2=O (stereo not shown) [Compound 1-29, 5,5-Dioxo-6-methyl-9-(3,3,3-trifluoro-2-hydroxy-2-methylpropanoylamino)-4,10-dihydrothieno[3,2-c][1]benzothiepin-10-one] | 2.4 |  |  |  |  | 
CCC(C)(O)C(=O)Nc1cccc2c1C(=O)c1sccc1CS2(=O)=O (stereo not shown) [Compound 3-14, 5,5-Dioxo-9-(2-hydroxy-2-methylbutanoylamino)-4,10-dihydrothieno[3,2-c][1]benzothiepin-10-one] | > 10 |  |  |  |  | 
CC1(C)Oc2ccc(C#N)cc2C(N2CCCC2=O)C1O (stereo not shown) [Cromakalim, cromakalim, reference compound] |  | 124 | 133 | 142 | 133 | 133
